This note sets out measurements from US20040249124A1 (priority 2001, published 2004).

For this test, the system named is antibody MBS-3 binding to p17. The test is described as follows: Competitive ELISA: displacement of MBS-3 binding to p17 absorbed in solid phase. In general terms: ELISA stands for enzyme-linked immunosorbent assay.

“NH2-Ser-Gly-Gly-Glu-Leu-Asp-Arg-Trp-Glu-Lys-Ile-Arg-Leu-Arg-COOH (H-SGGELDRWEKIRLR-OH) [SEQ ID NO: 2]”: the “displacing the binding of the antibody MBS-3 to p17” value is reported as “efficacious in displacing”.
